Experimental data published in PubChem BioAssay (NCI).
Values joined by “and” are separate entries in the source; they are usually repeats but may differ in a detail not shown here. Identical values can stand only once.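 Growth conditions: 96-well plates. Treatment: test compound, 48 hours, 5 concentrations. Analysis: linear interpolation between bracketing concentrations; unreached endpoints set to highest concentration. At the GI50, growth is halved. TGI marks complete inhibition of growth.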

Assays:
Assay in all cases: NCI tumour cell line growth inhibition, 48 h
K-562 leukemia = system: K-562 leukemia
NCI-H226 lung = system: NCI-H226 lung
KM12 colon = system: KM12 colon
CAKI-1 renal = system: CAKI-1 renal
HOP-62 NSCLC = system: HOP-62 NSCLC
SK-OV-3 ovarian = system: SK-OV-3 ovarian
NCI-H460 lung = system: NCI-H460 lung
HL-60(TB) leukemia = system: HL-60(TB) leukemia
MOLT-4 leukemia = system: MOLT-4 leukemia
U251 CNS = system: U251 CNS
SF-295 CNS = system: SF-295 CNS
PC-3 prostate = system: PC-3 prostate
M14 melanoma = system: M14 melanoma
HS 578T breast = system: HS 578T breast

`CNC(=O)N(CCC#N)CCCN(C(=O)NC)c1ccccc1` was tested, and the TGI (K-562 leukemia) was over 100 µM, the TGI (NCI-H226 lung) was over 100 µM and the TGI (KM12 colon) was over 100 µM. The TGI (CAKI-1 renal) was over 100 µM, the TGI (HOP-62 NSCLC) was over 100 µM and the TGI (SK-OV-3 ovarian) was over 100 µM. It also gave a TGI (NCI-H460 lung) of over 100 µM, a TGI (HL-60(TB) leukemia) of over 100 µM and a TGI (MOLT-4 leukemia) of over 100 µM. For the same compound, the TGI (U251 CNS) was over 100 µM, the TGI (SF-295 CNS) was over 100 µM and the TGI (PC-3 prostate) was over 100 µM. It also gave a TGI (M14 melanoma) of over 100 µM.

Work on `c1ccc(-n2nc3ccc4nonc4c3n2)cc1` yielded a TGI (K-562 leukemia) of over 100 µM, a TGI (KM12 colon) of over 100 µM and a TGI (CAKI-1 renal) of over 100 µM. For the same compound, the TGI (HOP-62 NSCLC) was over 100 µM, the TGI (SK-OV-3 ovarian) was over 100 µM and the TGI (NCI-H460 lung) was over 100 µM. The TGI (HL-60(TB) leukemia) was over 100 µM, the TGI (MOLT-4 leukemia) was over 100 µM and the TGI (U251 CNS) was over 100 µM. For the same compound, the TGI (SF-295 CNS) was over 100 µM, the TGI (PC-3 prostate) was over 100 µM and the TGI (M14 melanoma) was over 100 µM.

Work on `C=CCSC1=N/C(=C\c2cccs2)C(=O)N1CC=C` yielded a TGI (K-562 leukemia) of over 100 µM, a TGI (NCI-H226 lung) of over 100 µM and a TGI (KM12 colon) of over 100 µM. It also gave a TGI (CAKI-1 renal) of over 100 µM, a TGI (HS 578T breast) of over 100 µM and a TGI (HOP-62 NSCLC) of over 100 µM. The TGI (SK-OV-3 ovarian) was over 100 µM, the TGI (NCI-H460 lung) was over 100 µM and the TGI (MOLT-4 leukemia) was 62.2 µM. It also gave a TGI (U251 CNS) of over 100 µM, a TGI (SF-295 CNS) of over 100 µM and a TGI (PC-3 prostate) of over 100 µM. The TGI (M14 melanoma) was over 100 µM.

For `CN(C)S(=O)(=O)/N=C/c1cccc(/C=N/S(=O)(=O)N(C)C)c1`, the TGI (K-562 leukemia) was over 100 µM, the TGI (NCI-H226 lung) was over 100 µM and the TGI (KM12 colon) was over 100 µM. For the same compound, the TGI (CAKI-1 renal) was over 100 µM, the TGI (HOP-62 NSCLC) was over 100 µM and the TGI (SK-OV-3 ovarian) was over 100 µM. For the same compound, the TGI (NCI-H460 lung) was over 100 µM, the TGI (HL-60(TB) leukemia) was over 100 µM and the TGI (MOLT-4 leukemia) was over 100 µM. It also gave a TGI (U251 CNS) of over 100 µM, a TGI (SF-295 CNS) of over 100 µM and a TGI (PC-3 prostate) of over 100 µM. For the same compound, the TGI (M14 melanoma) was over 100 µM.

In the case of `Nc1cc(N2CCCC2)nc(=O)n1-c1ccccc1`, the TGI (K-562 leukemia) is reported as over 100 µM, the TGI (NCI-H226 lung) is reported as over 100 µM and the TGI (KM12 colon) is reported as over 100 µM. The TGI (CAKI-1 renal) was over 100 µM, the TGI (HOP-62 NSCLC) was over 100 µM and the TGI (NCI-H460 lung) was over 100 µM. For the same compound, the TGI (HL-60(TB) leukemia) was over 100 µM, the TGI (MOLT-4 leukemia) was over 100 µM and the TGI (U251 CNS) was over 100 µM. For the same compound, the TGI (SF-295 CNS) was over 100 µM, the TGI (PC-3 prostate) was over 100 µM and the TGI (M14 melanoma) was over 100 µM.

`CCOC(=O)[C@@]12C[C@](/C=C/OC)(O[Si](C)(C)C)[C@@]13c1cc(OC)c(OC)cc1CCN3C(=O)C2O` (stereo not given in full) showed a TGI (K-562 leukemia) of over 100 µM, a TGI (NCI-H226 lung) of over 100 µM and a TGI (KM12 colon) of over 100 µM. The TGI (CAKI-1 renal) was over 100 µM, the TGI (HS 578T breast) was over 100 µM and the TGI (HOP-62 NSCLC) was over 100 µM. The TGI (SK-OV-3 ovarian) was over 100 µM, the TGI (NCI-H460 lung) was over 100 µM and the TGI (MOLT-4 leukemia) was over 100 µM. The TGI (U251 CNS) was over 100 µM, the TGI (SF-295 CNS) was over 100 µM and the TGI (PC-3 prostate) was over 100 µM. The TGI (M14 melanoma) was over 100 µM.

For `COc1ccc2[nH]cc([C@@H]3C4CCC(C4)[C@H]3NCc3cccc(CN[C@H]4C5CCC(C5)[C@@H]4c4c[nH]c5ccc(OC)cc45)c3)c2c1`, the GI50 (K-562 leukemia) was 0.375 µM, the TGI (NCI-H226 lung) was 3.64 µM and the TGI (KM12 colon) was 0.95 µM and 1.34 µM. The TGI (CAKI-1 renal) was 2.79 µM and 3.21 µM, the TGI (HOP-62 NSCLC) was 2.89 µM and 2.97 µM and the GI50 (SK-OV-3 ovarian) was 1.6 µM. For the same compound, the TGI (SK-OV-3 ovarian) was 2.94 µM and 2.95 µM, the TGI (NCI-H460 lung) was 0.556 µM and 1.12 µM and the TGI (HL-60(TB) leukemia) was 0.453 µM and 0.503 µM. For the same compound, the GI50 (MOLT-4 leukemia) was 1.56 µM, the TGI (MOLT-4 leukemia) was 3.76 µM and 1.29 µM and the GI50 (U251 CNS) was 0.168 µM and 0.17 µM. The TGI (U251 CNS) was 0.329 µM and 0.324 µM, the TGI (SF-295 CNS) was 2.97 µM and 3.08 µM and the TGI (PC-3 prostate) was 2.93 µM and 2.59 µM. The GI50 (M14 melanoma) was 0.423 µM and the TGI (M14 melanoma) was 1.41 µM and 1.5 µM.

In the case of `CC(NC(=O)C(N)CC(=O)O)NC(=O)C1CCC1` (stereo not given), the TGI (K-562 leukemia) is reported as over 100 µM, the TGI (NCI-H226 lung) is reported as over 100 µM and the TGI (KM12 colon) is reported as over 100 µM. It also gave a TGI (CAKI-1 renal) of over 100 µM, a TGI (HS 578T breast) of over 100 µM and a TGI (HOP-62 NSCLC) of over 100 µM. For the same compound, the TGI (SK-OV-3 ovarian) was over 100 µM, the TGI (NCI-H460 lung) was over 100 µM and the TGI (MOLT-4 leukemia) was over 100 µM. For the same compound, the TGI (U251 CNS) was over 100 µM, the TGI (PC-3 prostate) was over 100 µM and the TGI (M14 melanoma) was over 100 µM.

In the case of `COC(=O)/C=C1/CCC(C)(C(=O)NS(=O)(=O)c2ccc(C)cc2)C1(C)C` (stereo not given), the TGI (K-562 leukemia) is reported as over 100 µM, the TGI (NCI-H226 lung) is reported as over 100 µM and the TGI (KM12 colon) is reported as over 100 µM. It also gave a TGI (CAKI-1 renal) of over 100 µM, a TGI (HOP-62 NSCLC) of over 100 µM and a TGI (SK-OV-3 ovarian) of over 100 µM. It also gave a TGI (NCI-H460 lung) of over 100 µM, a TGI (HL-60(TB) leukemia) of over 100 µM and a TGI (MOLT-4 leukemia) of over 100 µM. The TGI (U251 CNS) was over 100 µM, the TGI (SF-295 CNS) was over 100 µM and the TGI (PC-3 prostate) was over 100 µM. For the same compound, the TGI (M14 melanoma) was over 100 µM.

Work on `CCOc1ccc(N/C(Cl)=C(Cl)\C(=C(\Nc2ccc(OCC)cc2)n2nnc3ccccc32)[N+](=O)[O-])cc1` yielded a TGI (K-562 leukemia) of over 21.6 µM, a TGI (NCI-H226 lung) of 60.5 µM and a TGI (KM12 colon) of over 57.6 µM. It also gave a TGI (CAKI-1 renal) of 3.49 µM, a TGI (HS 578T breast) of over 100 µM and a TGI (HOP-62 NSCLC) of over 100 µM. It also gave a TGI (SK-OV-3 ovarian) of over 100 µM, a TGI (NCI-H460 lung) of over 59.7 µM and a TGI (MOLT-4 leukemia) of over 100 µM. For the same compound, the TGI (U251 CNS) was 22 µM, the TGI (SF-295 CNS) was 57.7 µM and the TGI (PC-3 prostate) was 21.6 µM. The TGI (M14 melanoma) was 17.3 µM.

Compound `O=C(CSc1nc2[nH]ncc2c(=O)[nH]1)c1ccc(Cl)cc1` has a TGI (K-562 leukemia) of over 100 µM, a TGI (NCI-H226 lung) of over 100 µM and a TGI (KM12 colon) of over 100 µM. For the same compound, the TGI (CAKI-1 renal) was over 100 µM, the TGI (HS 578T breast) was over 100 µM and the TGI (HOP-62 NSCLC) was over 100 µM. The TGI (SK-OV-3 ovarian) was over 100 µM, the TGI (NCI-H460 lung) was over 100 µM and the TGI (MOLT-4 leukemia) was over 100 µM. It also gave a TGI (U251 CNS) of over 100 µM, a TGI (SF-295 CNS) of over 100 µM and a TGI (PC-3 prostate) of over 100 µM. For the same compound, the TGI (M14 melanoma) was over 100 µM.

With `Cc1nnc2sc(NN)nn12` the TGI (K-562 leukemia) was over 100 µM, the TGI (NCI-H226 lung) was over 100 µM and the TGI (KM12 colon) was over 100 µM. The TGI (CAKI-1 renal) was over 100 µM, the TGI (HS 578T breast) was over 100 µM and the TGI (HOP-62 NSCLC) was over 100 µM. It also gave a TGI (SK-OV-3 ovarian) of over 100 µM, a TGI (NCI-H460 lung) of over 100 µM and a TGI (MOLT-4 leukemia) of 31.6 µM. It also gave a TGI (U251 CNS) of over 100 µM, a TGI (SF-295 CNS) of over 100 µM and a TGI (PC-3 prostate) of over 100 µM. It also gave a TGI (M14 melanoma) of over 100 µM.

Compound `Clc1cc(Cl)cc(C2ON=C(c3ccccc3)N2C23CC4CC(CC(C4)C2)C3)c1` (stereo not given) has a TGI (K-562 leukemia) of over 10 µM, a TGI (NCI-H226 lung) of over 10 µM and a TGI (KM12 colon) of over 10 µM. For the same compound, the TGI (CAKI-1 renal) was over 10 µM, the TGI (HS 578T breast) was over 10 µM and the TGI (HOP-62 NSCLC) was over 10 µM. For the same compound, the TGI (SK-OV-3 ovarian) was over 10 µM, the TGI (NCI-H460 lung) was over 10 µM and the TGI (MOLT-4 leukemia) was over 10 µM. It also gave a TGI (U251 CNS) of over 10 µM, a TGI (SF-295 CNS) of over 10 µM and a TGI (PC-3 prostate) of over 10 µM. The TGI (M14 melanoma) was over 10 µM.
